Assay results taken from the NIST ThermoML archive (doi:10.1016/j.fluid.2007.01.022).
Numbers after ± are expanded uncertainties.

Details: 298.15 K; 101.33 kPa; Liquid

Structure (SMILES)	mass density [kg/m3]
Cc1ccccc1N [2-methylaniline]	994.343 ± 0.24
CCCCCCCCCC [decane]	726.412 ± 1.6
CCCCCCCCCCCC [dodecane]	741.54 ± 1.6
CCCCCCC [heptane]	679.627 ± 0.85
CCCCCCCCC [nonane]	714.064 ± 1.3
CCCCCCCC [octane]	698.636 ± 1.3
